Measured values: patent US20250213571A1, “TYK2 INHIBITORS AND USES THEREOF” (Alumis Inc., priority 2022, published 2025)
Structures can show the parent of a compound that is named as a salt.

Key:
[1] = molecular target: human TYK2 (JH2domain-pseudokinase) (Homo sapiens (Human), UniProt P29597); experiment: TYK2 JH2 domain binding assay (KINOMEscan)
Method: Binding constants for the compounds described herein against the JH2 domain were determined by the following protocol for a KINOMEscan® assay (DiscoveRx). A fusion protein of a partial length construct of human TYK2 (JH2domain-pseudokinase) (amino acids G556 to D888 based on reference sequence NP_003322.3) and the DNA binding domain of NFkB was expressed in transiently transfected HEK293 cells. From these HEK 293 cells, extracts were prepared in M-PER extraction buffer (Pierce) in the presence of Protease Inhibitor Cocktail Complete (Roche) and Phosphatase Inhibitor Cocktail Set II (Merck) per manufacturers' instructions. The TYK2 (JH2domain-pseudokinase) fusion protein was labeled with a chimeric double-stranded DNA tag containing the NFkB binding site fused to an amplicon for qPCR readout, which was added directly to the expression extract (the final concentration of DNA-tag in the binding reaction is 0.1 nM).
Streptavidin-coated magnetic beads (Dynal M280) were treated with a biotinylated small molecule ligand for 30 minutes at room temperature to generate affinity resins the binding assays. The liganded beads were blocked with excess biotin and washed with blocking buffer (SeaBlock (Pierce), 1% BSA, 0.05% Tween 20, 1 mM DTT) to remove unbound ligand and to reduce nonspecific binding.
The binding reaction was assembled by combining 16 μl of DNA-tagged kinase extract, 3.8 μl liganded affinity beads, and 0.18 μl test compound (PBS/0.05% Tween 20/10 mM DTT/0.1% BSA/2 μg/ml sonicated salmon sperm DNA)]. Extracts were used directly in binding assays without any enzyme purification steps at a ≥10,000-fold overall stock dilution (final DNA-tagged enzyme concentration <0.1 nM). Extracts were loaded with DNA-tag and diluted into the binding reaction in a two-step process. First extracts were diluted 1:100 in 1×binding buffer (PBS/0.05% Tween 20/10 mM DTT/0.1% BSA/2 […] sonicated salmon sperm DNA) containing 10 nM DNA-tag. This dilution was allowed to equilibrate at room temperature for 15 minutes and then subsequently diluted 1:100 in 1× binding buffer. Test compounds were prepared as 111× stocks in 100% DMSO. Kds were determined using an 11-point 3-fold compound dilution series with three DMSO control points. All compounds for Kd measurements were distributed by acoustic transfer (non-contact dispensing) in 100% DMSO. The compounds were then diluted directly into the assays such that the final concentration of DMSO was 0.9%. All reactions were performed in polypropylene 384-well plates. Each was a final volume of 0.02 mL. Assays were incubated with shaking for 1 hour at room temperature. Then the beads were pelleted and washed with wash buffer (1×PBS, 0.05% Tween 20) to remove displaced kinase and test compound. The washed based were resuspended in elution buffer (1 λPBS, 0.05% Tween […] non-biotinylated affinity ligand) and incubated at room temperature with shaking for 30 minutes. The kinase concentration in the eluates was measured by qPCR. qPCR reactions were assembled by adding 2.5 μL of kinase eluate to 7.5 μL of qPCR master mix containing […] amplicon primers and 0.15 μM amplicon probe. The qPCR protocol consisted of a 10 minute hot start at 95° C., followed by 35 cycles of 95° C. for 15 seconds, 60° C. for 1 minute.
Test compounds were prepared as 111× stocks in 100% DMSO. Kds were determined using an 11-point 3-fold compound dilution series with three DMSO control points. All compounds for Kd measurements were distributed by acoustic transfer (non-contact dispensing) in 100% DMSO. The compounds were then diluted directly into the assays such that the final concentration of DMSO was 0.9%. The Kds were determined using a compound top concentration of 30,000 nM. Kd measurements were performed in duplicate.
Binding constants (Kds) were calculated with a standard dose-response curve using the Hill equation: […]
The Hill Slope was set to −1. […]

TYK2 JH1 = TYK2 JH1 (Homo sapiens (Human), UniProt P29597); experiment: TYK2 JH1 binding (Kd, Table 2); settings: JH1 domain
JAK1 JH2 = JAK1 JH2 (Homo sapiens (Human), UniProt P23458); experiment: JAK1 JH2 binding (Kd, Table 2); settings: JH2 domain
Chain of JAK1 JH2 (P23458 583-855): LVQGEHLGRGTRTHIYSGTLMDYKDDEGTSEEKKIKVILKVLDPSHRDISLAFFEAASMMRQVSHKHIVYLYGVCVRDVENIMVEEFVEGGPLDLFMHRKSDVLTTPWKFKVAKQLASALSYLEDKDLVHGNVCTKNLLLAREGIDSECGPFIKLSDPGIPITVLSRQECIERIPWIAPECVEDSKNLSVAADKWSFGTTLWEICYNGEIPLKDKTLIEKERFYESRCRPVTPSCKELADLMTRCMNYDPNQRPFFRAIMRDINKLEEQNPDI

Chain of TYK2 JH1 (P29597 897-1176): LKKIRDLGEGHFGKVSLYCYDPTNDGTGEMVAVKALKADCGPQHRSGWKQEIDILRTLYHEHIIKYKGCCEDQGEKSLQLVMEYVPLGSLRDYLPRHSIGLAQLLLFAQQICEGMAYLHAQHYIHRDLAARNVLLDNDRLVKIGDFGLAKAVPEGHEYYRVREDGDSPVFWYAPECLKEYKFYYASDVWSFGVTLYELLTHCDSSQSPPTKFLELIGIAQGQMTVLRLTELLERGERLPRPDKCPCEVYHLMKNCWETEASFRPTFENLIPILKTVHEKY
Chain of human TYK2 (JH2domain-pseudokinase) (P29597 556-888): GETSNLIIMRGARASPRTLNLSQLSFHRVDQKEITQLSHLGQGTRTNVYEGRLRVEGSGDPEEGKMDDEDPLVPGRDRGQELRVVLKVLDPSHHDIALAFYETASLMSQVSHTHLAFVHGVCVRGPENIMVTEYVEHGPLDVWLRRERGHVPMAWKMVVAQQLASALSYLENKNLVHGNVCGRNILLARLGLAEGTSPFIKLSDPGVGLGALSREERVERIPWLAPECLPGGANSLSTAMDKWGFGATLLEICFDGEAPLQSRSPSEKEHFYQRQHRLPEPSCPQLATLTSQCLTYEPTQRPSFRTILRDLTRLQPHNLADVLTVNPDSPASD

Kd [1]	Kd (TYK2 JH1)	Kd (JAK1 JH2)	Structure (SMILES)
< 0.01 µM	≥ 30 µM	1 to 10 µM	CNc1cc2nc3c(cnn13)C(=O)O[C@H](C)COCc1cc(c3nnn(C)c3c1)N2 [Compound 4, (R,1^3E,1^4E)-3^1,7-dimethyl-1^7-(methylamino)-3^1H-5,8-dioxa-2-aza-1(5,3),3(4,6)-dipyrazolo [1,5-a]pyrimidinacyclononaphan-9-one]
< 0.01 µM	≥ 30 µM	1 to 10 µM	CNc1cc2nc3c(cnn13)C(=O)N[C@H](C)COCc1cc(c3c(c1)ncn3C)N2 [Compound 9, (R,1^3E,1^4E)-3^1,7-Dimethyl-1^7-(methylamino)-3^1H-5-oxa-2,8-diaza-1(5,3)-pyrazolo[1,5-a]pyrimidina-3(7,5)-benzo[d]imidazolacyclononaphan-9-one]
< 0.01 µM	1 to 10 µM	1 to 10 µM	CNc1cc2nn3c(cnc13)C(=O)N[C@H](C)COCc1cc(c3ncn(C)c3c1)N2 [Compound 10, (7R,E)-3′,7-Dimethyl-1^8-(methylamino)-3^1H-5-oxa-2,8-diaza-1(6,3)-imidazo[1,2-b]pyrida-zina-3(4,6)-benzo[d]imidazolacyclononaphan-9-one]
< 0.01 µM	10 to 30 µM	1 to 10 µM	CNc1cc2nc3c(cnn13)C(=O)N[C@H](C)COCc1cc(c3ncn(C)c3c1)N2 [Compound 11, (R,1^3E,1^4E)-3′,7-Dimethyl-17-(methylamino)-3^1H-5-oxa-2,8-diaza-1(5,3)-pyrazolo[1,5-a]pyrimidina-3(4,6)-benzo[d]imidazolacyclononaphan-9-one]
< 0.01 µM	1 to 10 µM	0.01 to 1 µM	CNc1cc2nn3c(cnc13)C(=O)N[C@H](C)COCc1cc(c3cnn(C)c3c1)N2 [Compound 12, (7R,E)-3^1,7-Dimethyl-1^8-(methylamino)-3^1H-5-oxa-2,8-diaza-1(6,3)-imidazo[1,2-b]pyridazina-3(4,6)-indazolacyclononaphan-9-one]
< 0.01 µM	10 to 30 µM	10 to 30 µM	CNc1cc2nn3c(cnc13)C(=O)N[C@H](C)COCc1cc(c3c(cnn3C)c1)N2 [Compound 14, (7R,E)-3′,7-Dimethyl-1^8-(methylamino)-3^1H-5-oxa-2,8-diaza-1(6,3)-imidazo[1,2-b]pyridazina-3(7,5)-indazolacyclononaphan-9-one]
< 0.01 µM	≥ 30 µM	1 to 10 µM	CNc1cc2nc3c(cnn13)C(=O)N[C@H](CO)[C@@H](C)OCc1cc(c3nnn(C)c3c1)N2 [Compound 15]
< 0.01 µM	≥ 30 µM	≥ 30 µM	CNc1cc2nc3c(cnn13)C(=O)N[C@H](C(C)(C)O)COCc1cc(c3nnn(C)c3c1)N2 [Compound 16]
< 0.01 µM	≥ 30 µM	0.01 to 1 µM	CNc1cc2nc3c(cnn13)C(=O)N[C@H](C)COCc1cc(c3nn(C)cc3c1)N2 [Compound 35]
< 0.01 µM	1 to 10 µM	0.01 to 1 µM	CNc1cc2nn3c(cnc13)C(=O)N[C@H](C)COCc1cc(c3nn(C)cc3c1)N2 [Compound 36]
< 0.01 µM	≥ 30 µM	1 to 10 µM	CNc1cc2nc3c(cnn13)C(=O)N[C@H](C)[C@H](C)OCc1cc(c3nnn(C)c3c1)N2 [Compound 38]
< 0.01 µM	10 to 30 µM	1 to 10 µM	CNc1cc2nc3c(cnn13)C(=O)N[C@H](C)COCc1cc(c3cnn(C)c3c1)N2 [Compound 52]
< 0.01 µM	10 to 30 µM	0.01 to 1 µM	CNc1cc2nc3c(cnn13)C(=O)N[C@H](C)COCc1cc(c3cn(C)nc3c1)N2 [Compound 53]
< 0.01 µM			C[C@@H]1COCc2cc(c3nnn(C)c3c2)Nc2ccn3ncc(c3n2)C(=O)N1 [Compound 54]
< 0.01 µM			CNc1cc2nn3c(cnc13)C(=O)N[C@H](C)CSCc1cc(c3nnn(C)c3c1)N2 [Compound 55]
< 0.01 µM			CNc1cc2nn3c(cnc13)C(=O)N[C@H](C)COc1ncnc3cc(OC)c(cc13)N2 [Compound 56]
< 0.01 µM			CNc1cc2nn3c(cnc13)C(=O)N[C@H](C)CS(=O)(=O)Cc1cc(c3nnn(C)c3c1)N2 [Compound 57]
< 0.01 µM			CNc1cc2nn3c(cnc13)C(=O)N[C@H](C)C[S+]([O-])Cc1cc(c3nnn(C)c3c1)N2 (stereo partly drawn) [Compound 58]

Kd [1]	Kd (TYK2 JH1)	Kd (JAK1 JH2)	Structure (SMILES)
< 0.01 µM			CNc1nc2nc3c(n[nH]c13)C(=O)N[C@H](C)COCc1cc(c3nnn(C)c3c1)N2 [Compound 59]
< 0.01 µM	10 to 30 µM	0.01 to 1 µM	CNc1cc2nn3c(cnc13)C(=O)N[C@H](C)COc1ccnc3ccc(cc13)N2 [Compound 60]
< 0.01 µM			CNc1cc2nn3c(cnc13)C(=O)N[C@H](C)CNc1ccnc3ccc(cc13)N2 [Compound 61, (12R)-12-methyl-24-(methylamino)-2,4,5,7,11,14,18-heptaazapentacyclo[13.6.2.2^{3,6}0.^{5,9}0.^{19,23}]pentacosa-1(21),3,6,8,15,17,19,22,24-nonaen-10-one]
< 0.01 µM			CNc1cc2nn3c(cnc13)C(=O)N[C@H](C)COc1nccc3ccc(cc13)N2 [Compound 62]
< 0.01 µM			CNc1cc2nn3c(cnc13)C(=O)N[C@H](C)COc1ccnc3cnc(cc13)N2 [Compound 63, (12R)-12-methyl-24-(methylamino)-14-oxa-2,4,5,7,11,18,21-heptaazapentacyclo[13.6.2.2^(3,6.0^(5,9.0^(19,23]pentacosa-1(22),3,6,8,15,17,19(23),20,24-nonaen-10-one hydrochloride]
< 0.01 µM			CNc1cc2nn3c(cnc13)C(=O)N[C@H](C)COc1cccc3ncc(cc13)N2 [Compound 64]
< 0.01 µM			CNc1nc2nc3c(nn(C)c13)C(=O)N[C@H](C)COCc1cc(c3nnn(C)c3c1)N2 [Compound 65]
< 0.01 µM			CNc1cc2nn3c(cnc13)C(=O)N[C@H](C)CNc1ncnc3ccc(cc13)N2 [Compound 66]
< 0.01 µM			Cc1nc2ccc3nn2c1C(=O)N[C@H](C)COCc1cc(c2nnn(C)c2c1)N3 [Compound 67]
< 0.01 µM			CNc1cc2nn3c(cnc13)C(=O)N[C@H](C)COc1cncc3ccc(cc13)N2 [Compound 68]
< 0.01 µM			CNc1cc2nn3c(cnc13)C(=O)N[C@H](C)COc1cccc3ccc(nc13)N2 [Compound 69]
< 0.01 µM			CNc1nc2nc3c(n(C)nc13)C(=O)N[C@H](C)COCc1cc(c3nnn(C)c3c1)N2 [Compound 70]
0.01 to 1 µM			C[C@@H]1COCc2cc(c3nnn(C)c3c2)Nc2ccc3ncc(n3c2)C(=O)N1 [Compound 71]
0.01 to 1 µM			Cc1nc2ccc3cn2c1C(=O)N[C@H](C)COCc1cc(c2nnn(C)c2c1)N3 [Compound 75]
1 to 10 µM			CNc1nc2cn3c(cnc13)C(=O)N[C@H](C)COCc1cc(c3nnn(C)c3c1)N2 [Compound 76]
1 to 10 µM			C[C@@H]1COCc2cc(c3nnn(C)c3c2)Nc2cn3c(cnc3cn2)C(=O)N1 [Compound 77]
≥ 30 µM	≥ 30 µM	≥ 30 µM	CNc1cc2nn3c(cnc13)C(=O)N[C@H](C)COc1cnnc3ccc(cc13)N2 [Compound 80]
< 0.01 µM			CNc1cc2nn3c(cnc13)C(=O)N[C@H](C)COCc1cc(cn3ccnc13)N2 [Compound 99, (14R)-14-methyl-21-(methylamino)-12-oxa-2,5,8,15,19,23,24-heptaazapentacyclo[15.5.2.1^(3,10.0^(5,9.0^(20,24]pentacosa-1(23),3,6,8,10(25),17,19,21-octaen-16-one hydrochloride]
